Data taken from patent US8507251B2, “Medium and method for culturing Mycobacterium avium subspecies paratuberculosis” (priority 2009, dated 2013).
“And” between values parts separate entries of the source, which are not always exact repeats. Equal values may be shown once.

What was measured:
[1] = system: eight mycobacterial strains
[2] = system: MAP strain Dominic (ATCC 43545); experiment: radiometric 14CO2 BACTEC 460 growth culture, MAP Dominic; assay type: cell-based, Mycobacterium avium subspecies paratuberculosis
[3] = system: M. avium ATCC 25291; experiment: radiometric 14CO2 BACTEC 460 growth culture, M. avium 25291; assay type: cell-based, M. avium subspecies avium
[4] = system: MAP 303; experiment: radiometric 14CO2 BACTEC 460 growth culture, MAP 303; assay type: cell-based, Mycobacterium avium subspecies paratuberculosis
[5] = system: M. tuberculosis, M. Kansasii, M. scrofulaceum, M. avium and M. intracellulare; settings: 5 mg/ml; cited from earlier work
[6] = system: single MAP strain; settings: cited from earlier work
[7] = system: MAP ATCC 19698; experiment: radiometric 14CO2 BACTEC 460 growth culture, MAP 19698; assay type: cell-based, Mycobacterium avium subspecies paratuberculosis
[8] = system: M. avium 101; experiment: radiometric 14CO2 BACTEC 460 growth culture, M. avium 101; assay type: cell-based, M. avium subspecies avium
[9] = system: bacteria (including M. phlei) and fungal growth; settings: 100-250 μg/ml; cited from earlier work
[10] = system: MAP strain UCF-4; experiment: radiometric 14CO2 BACTEC 460 growth culture, MAP UCF-4; assay type: cell-based, Mycobacterium avium subspecies paratuberculosis
[11] = system: M. avium; assay type: cell-based, M. avium subspecies avium; settings: 4 μg/ml; value is a decrease
[12] = system: Bacillus Callmette Guerin (BCG) M. bovis Karlson & Lessel (ATCC 19015); assay type: cell-based
[13] = system: avirulent M. tb strain ATCC 25177; assay type: cell-based, M. tuberculosis
[14] = 1 μg/ml, first of the two values (two experiments)
[15] = 1 μg/ml, second of the two values (two experiments)
[16] = 4 μg/ml, first of the two values (two experiments)
[17] = 4 μg/ml, second of the two values (two experiments)
[18] = 16 μg/ml, first of the two values (two experiments)
[19] = 16 μg/ml, second of the two values (two experiments)
[20] = 64 μg/ml, first of the two values (two experiments)
[21] = 64 μg/ml, second of the two values (two experiments)

Structure (SMILES)	effect on growth (in words) [1]	percent change from control cGI (% ΔcGI / % −ΔcGI) [2, 14] [%]	percent change from control cGI (% ΔcGI / % −ΔcGI) [2, 15] [%]	percent change from control cGI (% ΔcGI / % −ΔcGI) [2, 16] [%]	percent change from control cGI (% ΔcGI / % −ΔcGI) [2, 17] [%]	percent change from control cGI (% ΔcGI / % −ΔcGI) [2, 18] [%]	percent change from control cGI (% ΔcGI / % −ΔcGI) [2, 19] [%]	percent change from control cGI (% ΔcGI / % −ΔcGI) [2, 20] [%]	percent change from control cGI (% ΔcGI / % −ΔcGI) [2, 21] [%]	percent change from control cGI (% ΔcGI / % −ΔcGI) ([3]; 1 μg/ml) [%]	percent change from control cGI (% ΔcGI / % −ΔcGI) ([3]; 4 μg/ml) [%]	percent change from control cGI (% ΔcGI / % −ΔcGI) ([3]; 16 μg/ml) [%]	percent change from control cGI (% ΔcGI / % −ΔcGI) ([3]; 64 μg/ml) [%]	percent change from control cGI (% ΔcGI / % −ΔcGI) ([4]; 1 μg/ml) [%]	percent change from control cGI (% ΔcGI / % −ΔcGI) ([4]; 4 μg/ml) [%]	percent change from control cGI (% ΔcGI / % −ΔcGI) ([4]; 16 μg/ml) [%]	percent change from control cGI (% ΔcGI / % −ΔcGI) ([4]; 64 μg/ml) [%]	percent change from control cGI (% ΔcGI / % −ΔcGI) ([7]; 1 μg/ml) [%]	percent change from control cGI (% ΔcGI / % −ΔcGI) ([7]; 4 μg/ml) [%]	percent change from control cGI (% ΔcGI / % −ΔcGI) ([7]; 16 μg/ml) [%]	also measured
CN1CCCC1c1cccnc1 (racemic) [(±) nicotine, nicotine]	neither enhancement nor an inhibitory effect	–	–	–	–	–	–	–	–	–	–	–	–	–	–	–	–	–	–	–	–
CN1CCCC1c1cccnc1 (single isomer, unassigned; (+)) [(+) nicotine, nicotine]	neither enhancement nor an inhibitory effect	–	–	–	–	–	–	–	–	–	–	–	–	–	–	–	–	–	–	–	–
CN1CCCC1c1cccnc1 (single isomer, unassigned; (-)) [(−) nicotine, nicotine]	neither enhancement nor an inhibitory effect	–	–	–	–	–	–	–	–	–	–	–	–	–	–	–	–	–	–	–	–
CN1CCCC1c1cccnc1 (centres unmarked) [Nicotine, nicotine, reference compound]	no effect on growth	−2	0	29	30	1	6	−12	7	106	63	143	112	7	8	−22	7	−20	−20	−21	effect on growth (in words) [5]: Enhanced growth; effect on MAP growth (in words) ([6]; 2 μg/ml, BACTEC 460 with OADC supplementation): Bactericidal inhibition; effect on MAP growth in culture (in words) ([6]; solitary MAP strain, pure nicotine): inhibited MAP growth; percent change from control cGI (% ΔcGI / % −ΔcGI) ([7]; 64 μg/ml): −11%; percent change from control cGI (% ΔcGI / % −ΔcGI) ([8]; 1 μg/ml): 55%; percent change from control cGI (% ΔcGI / % −ΔcGI) ([8]; 4 μg/ml): 0%; percent change from control cGI (% ΔcGI / % −ΔcGI) ([8]; 16 μg/ml): 15%; percent change from control cGI (% ΔcGI / % −ΔcGI) ([8]; 64 μg/ml): 5%; effect on growth (in words) [9]: inhibition; percent change from control cGI (% ΔcGI / % −ΔcGI) ([10]; 1 μg/ml): −10%; percent change from control cGI (% ΔcGI / % −ΔcGI) ([10]; 4 μg/ml): −10%; percent change from control cGI (% ΔcGI / % −ΔcGI) ([10]; 16 μg/ml): −6%; percent change from control cGI (% ΔcGI / % −ΔcGI) ([10]; 64 μg/ml): 9%
Nc1ccc(C(=O)O)c(O)c1 [PAS, para-amino salicylic acid, reference compound]	–	–	–	–	–	–	–	–	–	–	–	–	–	–	–	–	–	–	–	–	percent decrease from control cGI (%−ΔcGI) ([4]; 64 μg/ml, value is a decrease): 80%; percent decrease from control cGI (%−ΔcGI) ([7]; 64 μg/ml, value is a decrease): 80%; percent decrease from control cGI (%−ΔcGI) [11]: ≥ 94%; percent decrease from control cGI (%−ΔcGI) ([12]; 4 μg/ml): ≥ 94%
NC(=O)c1ccc[n+]([C@H]2O[C@H](COP(=O)([O-])OP(=O)(O)OC[C@H]3O[C@@H](n4cnc5c(N)ncnc54)[C@H](O)[C@@H]3O)[C@@H](O)[C@H]2O)c1 [α-NAD, α-nicotinamide adenine dinucleotide]	–	25	−16	79	35	104	78	135	115	−2	160	131	147	8	9	−8	−18	−16	−6	−17	effect on growth (in words) [13]: little or no effect; percent change from control cGI (% ΔcGI / % −ΔcGI) [13]: 2% and −6% and −1% and 0%; effect on growth (in words) [4]: little or no effect; effect on growth (in words) [7]: little or no effect; percent change from control cGI (% ΔcGI / % −ΔcGI) ([7]; 64 μg/ml): 13%; effect on growth (in words) ([12]; at the doses tested): little or no effect; effect on growth (in words) [8]: little or no effect; percent change from control cGI (% ΔcGI / % −ΔcGI) ([8]; 1 μg/ml): 39%; percent change from control cGI (% ΔcGI / % −ΔcGI) ([8]; 4 μg/ml): −15%; percent change from control cGI (% ΔcGI / % −ΔcGI) ([8]; 16 μg/ml): −21%; percent change from control cGI (% ΔcGI / % −ΔcGI) ([8]; 64 μg/ml): −14%; percent change from control cGI (% ΔcGI / % −ΔcGI) ([10]; 1 μg/ml): 18%; percent change from control cGI (% ΔcGI / % −ΔcGI) ([10]; 4 μg/ml): 35%; percent change from control cGI (% ΔcGI / % −ΔcGI) ([10]; 16 μg/ml): 65%; percent change from control cGI (% ΔcGI / % −ΔcGI) ([10]; 64 μg/ml): 81%
